Experimental findings from ChEMBL document CHEMBL1136896, “Synthesis and biological evaluation of arylhydrazinocyanoacrylates and N-aryl pyrazolecarboxylates” (2009) are described below.

Assay type in all cases: functional
Experiment [1] concerns Bel-7402. The experiment in a line: Antitumor activity against human Bel7402 cells at 1000 uM/L after 72 hrs by MTT assay. The following applies: Bel-7402, 72 h. In general terms: Tetrazolium assays rely on reduction of a dye to a coloured formazan, in cell work by metabolically active cells.
The test system of experiment [2] is HL-60. As to the kind of experiment: Antitumor activity against human HL60 cells at 1 uM/L after 72 hrs by MTT assay. The following applies: HL-60, 72 h.
The subject of experiment [3] is HL-60. The experiment in a line: Antitumor activity against human HL60 cells at 1000 uM/L after 72 hrs by MTT assay. The following applies: HL-60, 72 h.
The test system of experiment [4] is Botryosphaeria berengeriana. As to the kind of experiment: Fungicidal activity against Physalospora pyricola assessed as inhibition of mycelium growth at 50 mg/L after 72 hrs.
The subject of another experiment is Cucumis sativus. As to the kind of experiment: Growth regulatory activity in cucumber assessed as root growth at 10 mg/L incubated in dark for 5 days.
In a further experiment the test system is Alternaria solani. The experiment in a line: Fungicidal activity against Alternaria solani assessed as inhibition of mycelium growth at 50 mg/L after 72 hrs.
Experiment [5] concerns HL-60. The experiment in a line: Antitumor activity against human HL60 cells at 10 uM/L after 72 hrs by MTT assay. To be noted: HL-60, 72 h.
The subject of experiment [6] is Bel-7402. The experiment in a line: Antitumor activity against human Bel7402 cells at 100 uM/L after 72 hrs by MTT assay. The following applies: Bel-7402, 72 h.
The subject of experiment [7] is Medicago sativa. As to the kind of experiment: Herbicidal activity against Medicago sativa at 1.5 kg/hectare administered preemergence of first true leaf measured after 10 days. To be noted: pre-emergence, 240 h.
The subject of another experiment is Fusarium graminearum. As to the kind of experiment: Fungicidal activity against Gibberella zeae assessed as inhibition of mycelium growth at 50 mg/L after 72 hrs.
In experiment [8] the test system is Brassica napus. As to the kind of experiment: Herbicidal activity against Brassica napus at 1.5 kg/hectare administered postemergence of first true leaf measured after 10 days. To be noted: post-emergence, 240 h.
Experiment [9] relates to Amaranthus retroflexus. As to the kind of experiment: Herbicidal activity against Amaranthus retroflexus at 1.5 kg/hectare administered preemergence of first true leaf measured after 10 days. To be noted: pre-emergence, 240 h.
Experiment [10] deals with Brassica napus. As to the kind of experiment: Herbicidal activity against Brassica napus L. at 1.5 kg/hectare administered preemergence of first true leaf measured after 10 days. To be noted: pre-emergence, 240 h.
Another experiment relates to Cladosporium cucumerinum. As to the kind of experiment: Fungicidal activity against Cladosporium cucumerinum assessed as inhibition of mycelium growth at 50 mg/L after 72 hrs.
Experiment [11] concerns Amaranthus retroflexus. The experiment in a line: Herbicidal activity against Amaranthus retroflexus at 1.5 kg/hectare administered postemergence of first true leaf measured after 10 days. The following applies: post-emergence, 240 h.
For another experiment, the system named is Mycosphaerella arachidis. As to the kind of experiment: Fungicidal activity against Cercospora arachidicola assessed as inhibition of mycelium growth at 50 mg/L after 72 hrs.
For experiment [12], the system named is HL-60. The experiment in a line: Antitumor activity against human HL60 cells at 100 uM/L after 72 hrs by MTT assay. To be noted: HL-60, 72 h.
Experiment [13] has as its system Digitaria sanguinalis. As to the kind of experiment: Herbicidal activity against Digitaria sanguinalis at 1.5 kg/hectare administered postemergence of first true leaf measured after 10 days. To be noted: post-emergence, 240 h.
Experiment [14] concerns Medicago sativa. As to the kind of experiment: Herbicidal activity against Medicago sativa at 1.5 kg/hectare administered postemergence of first true leaf measured after 10 days. The following applies: post-emergence, 240 h.
In experiment [15] the test system is Digitaria sanguinalis. The experiment in a line: Herbicidal activity against Digitaria sanguinalis (L.) Scop. at 1.5 kg/hectare administered preemergence of first true leaf measured after 10 days. To be noted: pre-emergence, 240 h.
The subject of experiment [16] is Bel-7402. The experiment in a line: Antitumor activity against human Bel7402 cells at 10 uM/L after 72 hrs by MTT assay. The following applies: Bel-7402, 72 h.
For experiment [17], the system named is Bel-7402. The experiment in a line: Antitumor activity against human Bel7402 cells at 1 uM/L after 72 hrs by MTT assay. To be noted: Bel-7402, 72 h.

By inhibition is commonly meant the percentage by which the read-out fell short of the control.

Take `CCOCCOC(=O)/C(C#N)=C(/CC)NNc1c(Cl)cccc1Cl`: the results for the inhibition at 1000 µM in the experiment on Bel-7402 [1] and in the experiment with HL-60 [3] were 79.8% and 80.4%, respectively. Also, the results for the inhibition at 1 µM with HL-60 [2] and in the experiment with Bel-7402 [17] were 4.3% and 11.5%, respectively. For the same compound, the inhibition at 50 µg/mL is 24% in [4]; 10% in the experiment with Alternaria solani; 0% with Fusarium graminearum; 0% with Cladosporium cucumerinum; 24.4% in the experiment on Mycosphaerella arachidis. In addition, the Activity in the experiment on Cucumis sativus is reported as -6%. The inhibition at 10 µM in the experiment on HL-60 [5] stood at 35.9%; in the experiment on Bel-7402 [16] it was 17.1%. Also, the inhibition at 100 µM in the experiment on Bel-7402 [6] came out at 54.6%; with HL-60 [12] it was 72.4%. The inhibition at 1500 g/ha in the experiment on Medicago sativa [7] was 0%; in the experiment on Brassica napus [8], 11.1%; in the experiment with Amaranthus retroflexus [9], 8.8%; in the experiment with Brassica napus [10] it was 5.3%; in the experiment on Amaranthus retroflexus [11], 22.7%; in the experiment with Digitaria sanguinalis [13], 0%. Moreover, the inhibition at 1500 g/ha in the experiment with Medicago sativa [14] was 2.3%; in the experiment with Digitaria sanguinalis [15] it was 0%.
On to `CCOCCOC(=O)/C(C#N)=C(\NNc1c(Cl)cccc1Cl)C(C)C`, for which the inhibition at 1000 µM worked out at 45.1% in the experiment with Bel-7402 [1] and 73.4% in the experiment with HL-60 [3]. The inhibition at 1 µM in the experiment on HL-60 [2] was determined as 0%; in the experiment with Bel-7402 [17] it was 7.6%. Moreover, the inhibition at 50 µg/mL in experiment [4] was 10.7%; in the experiment with Alternaria solani, 10%; in the experiment on Fusarium graminearum, 4.8%; in the experiment on Cladosporium cucumerinum, 0%; in the experiment on Mycosphaerella arachidis, 0%. For the same compound, in the experiment with Cucumis sativus, the Activity is listed as -6%. The inhibition at 10 µM with HL-60 [5] was 7.7%; with Bel-7402 [16], 9.5%. Moreover, the values for the inhibition at 100 µM in the experiment on Bel-7402 [6] and in the experiment on HL-60 [12] were 17.3% and 21.4%, respectively. In addition, the inhibition at 1500 g/ha in the experiment with Medicago sativa [7] came out at 0%; in the experiment with Brassica napus [8], 2.3%; in the experiment on Amaranthus retroflexus [9], 0%; in the experiment with Brassica napus [10], 9.9%; with Amaranthus retroflexus [11], 15.6%; in the experiment on Digitaria sanguinalis [13], 0%. Also, the inhibition at 1500 g/ha in the experiment with Medicago sativa [14] turned out to be 1.4%; with Digitaria sanguinalis [15], 0%.
As for `CCOCCOC(=O)/C(C#N)=C(\NNc1cc(Cl)c(Cl)cc1Cl)C(C)C`, the inhibition at 1000 µM was found to be 96.9% with Bel-7402 [1] and 81.1% with HL-60 [3]. In addition, the inhibition at 1 µM in the experiment on HL-60 [2] worked out at 7.1%; with Bel-7402 [17], 0%. Further, the inhibition at 50 µg/mL in [4] was 26.7%; with Alternaria solani it was 10%; with Fusarium graminearum it was 14.4%; in the experiment with Cladosporium cucumerinum, 16.7%; in the experiment with Mycosphaerella arachidis it was 18.2%. In addition, the Activity in the experiment with Cucumis sativus is listed as -1.5%. Moreover, the inhibition at 10 µM came to 23.4% in the experiment with HL-60 [5] and 0% with Bel-7402 [16]. Also, the inhibition at 100 µM with Bel-7402 [6] was found to be 0%; in the experiment on HL-60 [12] it was 1.5%. Moreover, the inhibition at 1500 g/ha stood at 0% in the experiment on Medicago sativa [7]; 5% in the experiment with Brassica napus [8]; 5.9% in the experiment with Amaranthus retroflexus [9]; 0% in the experiment with Brassica napus [10]; 20.3% in the experiment with Amaranthus retroflexus [11]; 0% in the experiment on Digitaria sanguinalis [13]. For the same compound, the figures for the inhibition at 1500 g/ha in the experiment on Medicago sativa [14] and in the experiment on Digitaria sanguinalis [15] were 3.7% and 0%, respectively.
